System: rabbit skeletal myofibrils (approximately 90% fast fibers)
Test: Activation of fast skeletal myofibrils (PUMA coupled-enzyme ATPase assay, AC1.4)
Assay type: biochemical
Settings: concentration at which the compound increased enzymatic activity by 40%, calcium at pCa25

| SMILES | Mean AC1.4 (Table 2) | other results |
| --- | --- | --- |
| CC(C)(CNc1nc(-c2cncc(C(N)=O)c2)ns1)c1ccc(F)cc1 [5-(5-{[2-(4-fluorophenyl)-2-methylpropyl]amino}-1,2,4-thiadiazol-3-yl)pyridine-3-carboxamide] | A (A=<1 uM) |  |
| CC(C)(CNc1nc(-c2ccc(O)cc2)ns1)c1ccc(F)cc1 [4-(5-{[2-(4-fluorophenyl)-2-methylpropyl]amino}-1,2,4-thiadiazol-3-yl)phenol] | A (A=<1 uM) |  |
| CN1CCN(C(=O)CNc2nc(-c3cccc(C(N)=O)c3)ns2)CC1 [3-(5-{[2-(4-methylpiperazinyl)-2-oxoethyl]amino}-1,2,4-thiadiazol-3-yl)benzamide] | D (D=>20 uM) |  |
| C[C@H](CNc1nc(-c2cncc(C#N)c2)ns1)c1ccc(F)cc1 [5-(5-{[(2S)-2-(4-fluorophenyl)propyl]amino}-1,2,4-thiadiazol-3-yl)pyridine-3-carbonitrile] | C (C=10-20 uM) |  |
| CC(C)(CNc1nc(Cc2ccc(O)cc2)ns1)c1ccc(F)cc1 [4-[(5-{[2-(4-fluorophenyl)-2-methylpropyl]amino}-1,2,4-thiadiazol-3-yl)methyl]phenol] | A (A=<1 uM) |  |
| COc1ccc(Cc2nsc(NCC(C)(C)c3ccc(Cl)cc3)n2)cc1 [[2-(4-chlorophenyl)-2-methylpropyl]{3-[(4-methoxyphenyl)methyl](1,2,4-thiadiazol-5-yl)}amine] | A (A=<1 uM) |  |
| CC(C)(CNc1nc2ccc(C(=O)O)cc2s1)c1ccc(F)cc1 [2-(2-(4-fluorophenyl)-2-methylpropylamino)benzo-6-carboxylic acid] |  | Mean AC1.4 (Table 4): C (C=10-20 uM) |
| CC(C)(CNc1nc2c(Cl)cccc2s1)c1ccc(F)cc1 [4-chloro-N-(2-(4-fluorophenyl)-2-methylpropyl)benzo[d]thiazol-2-amine] |  | Mean AC1.4 (Table 4): A (A=<1 uM) |
| COC(=O)N1CCN(Cc2nsc(NCC(C)(C)c3ccc(F)cc3)n2)CC1 [methyl 4-[(5-{[2-(4-fluorophenyl)-2-methylpropyl]amino}-1,2,4-thiadiazol-3-yl)methyl]piperazinecarboxylate] | C (C=10-20 uM) |  |
| Fc1cccnc1C1(CNc2nc(-c3ccccc3)cs2)CCC1 [N-((1-(3-fluoropyridin-2-yl)cyclobutyl)methyl)-4-phenylthiazol-2-amine] |  | Mean AC1.4 (Table 5): B (B=1-10 uM) |
| NC(=O)c1ccccc1-c1nnc(NCC2(c3ncccc3F)CCC2)s1 [2-(5-((1-(3-fluoropyridin-2-yl)cyclobutyl)methylamino)-1,3,4-thiadiazol-2-yl)benzamide] |  | Mean AC1.4 (Table 3): D (D=>20 uM) |
| N#Cc1ccc2nc(N)sc2c1 [2-aminobenzo[d]thiazole-6-carbonitrile] |  | Mean AC1.4 (Table 4): D (D=>20 uM) |
| CN(CCO)Cc1nsc(NCC(C)(C)c2ccc(F)cc2)n1 [2-{[(5-{[2-(4-fluorophenyl)-2-methylpropyl]amino}(1,2,4-thiadiazol-3-yl))methyl]methylamino}ethan-1-ol] | D (D=>20 uM) |  |
| CC(C)(CNc1nc(-c2ccc3c(N)n[nH]c3c2)ns1)c1ccc(F)cc1 [[3-(3-amino(1H-indazol-6-yl))(1,2,4-thiadiazol-5-yl)][2-(4-fluorophenyl)-2-methylpropyl]amine] | A (A=<1 uM) |  |
| Fc1ccc(Cc2nsc(NCc3ccc(Cl)cc3)n2)cc1 [[(4-chlorophenyl)methyl]{3-[(4-fluorophenyl)methyl])1,2,4-thiadiazol-5-yl)}amine] | D (D=>20 uM) |  |
| CC(=O)N1CCC(CNc2nc(-c3cccc(C(N)=O)c3)ns2)(c2ccc(F)cc2)CC1 [3-[5-({[1-acetyl-4-(4-fluorophenyl)-4-piperidyl]methyl}amino)-1,2,4-thiadiazol-3-yl]benzamide] | D (D=>20 uM) |  |

| SMILES | Mean AC1.4 (Table 2) | other results |
| --- | --- | --- |
| Fc1ccc(Cc2nsc(NCCc3cccnc3)n2)cc1 [{3-[(4-fluorophenyl)methyl](1,2,4-thiadiazol-5-yl)}(2-(3-pyridyl)ethyl)amine] | D (D=>20 uM) |  |
| CC(=O)NCCCc1nsc(NCC(C)(C)c2ccc(F)cc2)n1 [N-[3-(5-{[2-(4-fluorophenyl)-2-methylpropyl]amino}-1,2,4-thiadiazol-3-yl)propyl]acetamide] | C (C=10-20 uM) |  |
| Cc1nsc(NC(=O)C(C)(C)c2ccc(F)cc2)n1 [2-(4-fluorophenyl)-2-methyl-N-(3-methyl(1,2,4-thiadiazol-5-yl))propanamide] | D (D=>20 uM) |  |
| CC(C)(CNc1nc(-c2ccncc2)ns1)c1ccc(F)cc1 [[2-(4-fluorophenyl)-2-methylpropyl](3-(4-pyridyl)(1,2,4-thiadiazol-5-yl))amine] | B (B=1-10 uM) |  |
| CC(C)(CNc1nc(CCN2CCC(O)CC2)ns1)c1ccc(F)cc1 [1-[2-(5-{[2-(4-fluorophenyl)-2-methylpropyl]amino}-1,2,4-thiadiazol-3-yl)ethyl]piperidin-4-ol] | D (D=>20 uM) |  |
| CN1CCN(CCc2nsc(NCC(C)(C)c3ccc(F)cc3)n2)CC1 [[2-(4-fluorophenyl)-2-methylpropyl]{3-[2-(4-methylpiperazinyl)ethyl](1,2,4-thiadiazol-5-yl)}amine] | C (C=10-20 uM) |  |
| Fc1cccnc1[C@]1(CNc2nnc(-c3ccon3)s2)C[C@@H](F)C1 [N-((3-fluoro-1-(3-fluoropyridin-2-yl)cyclobutyl)methyl)-5-(isoxazol-3-yl)-1,3,4-thiadiazol-2-amine] |  | Mean AC1.4 (Table 3): C (C=10-20 uM) |
| COc1cccc(Cc2nsc(NC[C@@H](C)c3ccc(F)cc3)n2)c1 [[(2S)-2-(4-fluorophenyl)propyl]{3-[(3-methoxyphenyl)methyl](1,2,4-thiadiazol-5-yl)}amine] | A (A=<1 uM) |  |
| CCc1ccc(F)c(-c2nnc(NC[C@]3(c4ncccc4F)C[C@H](F)C3)s2)c1 [5-(5-ethyl-2-fluorophenyl)-N-((3-fluoro-1-(3-fluoropyridin-2-yl)cyclobutyl)methyl)-1,3,4-thiadiazol-2-amine] |  | Mean AC1.4 (Table 3): A (A=<1 uM) |
| CN(C)C(=O)c1ccc2nc(NCC(C)(C)c3ccc(F)cc3)sc2c1 [2-(2-(4-fluorophenyl)-2-methylpropylamino)-N,N-dimethylbenzo[d]thiazole-6-carboxamide] |  | Mean AC1.4 (Table 4): B (B=1-10 uM) |
| NC(=O)c1ccc(F)c(-c2nnc(NC[C@]3(c4ncccc4F)C[C@H](F)C3)s2)c1 [4-fluoro-3-(5-((3-fluoro-1-(3-fluoropyridin-2-yl)cyclobutyl)methylamino)-1,3,4-thiadiazol-2-yl)benzamide] |  | Mean AC1.4 (Table 3): A (A=<1 uM) |
| CC(C)(CNc1nc(Cl)ns1)c1ccc(F)cc1 [3-Chloro-N-(2-(4-fluorophenyl)-2-methylpropyl)-1,2,4-thiadiazol-5-amine] | B (B=1-10 uM) |  |
| CC(C)(CNc1nc(C(O)CO)ns1)c1ccc(F)cc1 (centres unmarked) [1-(5-{[2-(4-fluorophenyl)-2-methylpropyl]amino}-1,2,4-thiadiazol-3-yl)ethane-1,2-diol] | B (B=1-10 uM) |  |
| COc1cccc(Cc2nsc(NCC(C)(C)c3ccc(F)cc3)n2)c1 [[2-(4-fluorophenyl)-2-methylpropyl]{3-[(3-methoxyphenyl)methyl](1,2,4-thiadiazol-5-yl)}amine] | A (A=<1 uM) |  |
| Fc1ccc(Cc2nsc(NCCc3ccccc3)n2)cc1 [{3-[(4-fluorophenyl)methyl](1,2,4-thiadiazol-5-yl)}(2-phenylethyl)amine] | D (D=>20 uM) |  |
| CC(C)(CNc1nc(-c2ccc(C(N)=O)cc2)ns1)c1ccc(F)cc1 [4-(5-{[2-(4-fluorophenyl)-2-methylpropyl]amino}-1,2,4-thiadiazol-3-yl)benzamide] | A (A=<1 uM) |  |
